Test results from publication PMC8396344, “Palmitoylation of Prolactin-Releasing Peptide Increased Affinity for and Activation of the GPR10, NPFF-R2 and NPFF-R1 Receptors: In Vitro Study” (International Journal of Molecular Sciences, 2021).
No end group written: not given here.

Key:
NPFF-R2 = biological target: T1, NPFF-R2 (Homo sapiens, UniProt Q9Y5X5); assay: Competitive binding, [^125I]-1DMe, membranes of CHO-K1 cells with NPFF-R2
T1 construct: host or cells: CHO-K1 (AequoScreen, co-expressing aequorin)
Protocol: (§1) Pellets of CHO-K1 cells containing NPFF-R2, NPFF-R1 and KOR receptors were homogenized in ice-cold homogenizing buffer (20 mM HEPES pH 7.1, 5 mM MgCl2, 0.7 mM bacitracin) with a DIAX 100 Homogenizer (Heidolph Instruments, Schwabach, Germany) and centrifuged in an ultracentrifuge (Beckman Coulter, Fullerton, CA, USA) at 26,000× g for 15 min at 4 °C. The pellets were homogenized in ice-cold homogenization buffer, and the previous steps were repeated 2 more times. After the third centrifugation, pellets were resuspended in ice-cold storage buffer (50 mM Tris-Cl pH 7.4, 0.5 mM EDTA, 10 mM MgCl2, 10% sucrose), and aliquots were stored at −80 °C. The concentration of isolated membrane proteins was determined by a PierceTM BCA Protein Assay Kit (Pierce, Rockford, IL, USA). […]
(§2) Experiments were carried out in duplicate at least three times, and Ki was calculated using the Cheng-Prusoff equation.
(§3) Data were analyzed by GraphPad Software (San Diego, CA, USA) and are presented as the means ± SEM. The saturation and competitive binding experiments were analyzed according to [46] using the Cheng-Prusoff equation [33]. […] From saturation binding experiments, the dissociation constant (Kd) and number of binding sites/cell (Bmax) were calculated. Inhibition constants (Ki) were calculated from IC50 values, Kd and the concentration of radioligands.

NPFF-R1 = biological target: T2, NPFF-R1 (Homo sapiens, UniProt Q9GZQ6); assay: Competitive and saturation binding, [^125I]-1DMe, membranes of CHO-K1 cells with NPFF-R1
T2 construct: host or cells: CHO-K1 (isolated membranes)
Protocol: as §2
(§4) Data were analyzed by GraphPad Software (San Diego, CA, USA) and are presented as the means ± SEM. The saturation and competitive binding experiments were analyzed according to [46] using the Cheng-Prusoff equation [33]. The competitive binding curves were plotted compared to the best fit for single-binding site models, and half maximal inhibitory concentration (IC50) values were obtained from nonlinear regression analysis. From saturation binding experiments, the dissociation constant (Kd) and number of binding sites/cell (Bmax) were calculated. Inhibition constants (Ki) were calculated from IC50 values, Kd and the concentration of radioligands.

KOR = biological target: T3, KOR (Homo sapiens, UniProt P41145); assay: Competitive and saturation binding, [^125I]-dynorphin, membranes of CHO-K1 cells with KOR; conditions: competition with [^125I]-dynorphin A, CHO-K1 membranes 5 µg protein/tube, 60 min RT; mean ± SEM, 2–5 independent experiments in duplicates; Cheng-Prusoff
T3 construct: host or cells: CHO-K1
Protocol: as §1, §2, §3

Y1 = biological target: T4, Y1 (Homo sapiens, UniProt P25929); assay: Competitive and saturation binding, [^125I]-PYY, U2OS cells with Y1
T4 construct: host or cells: U2OS
T4 sequence (P25929 1-384): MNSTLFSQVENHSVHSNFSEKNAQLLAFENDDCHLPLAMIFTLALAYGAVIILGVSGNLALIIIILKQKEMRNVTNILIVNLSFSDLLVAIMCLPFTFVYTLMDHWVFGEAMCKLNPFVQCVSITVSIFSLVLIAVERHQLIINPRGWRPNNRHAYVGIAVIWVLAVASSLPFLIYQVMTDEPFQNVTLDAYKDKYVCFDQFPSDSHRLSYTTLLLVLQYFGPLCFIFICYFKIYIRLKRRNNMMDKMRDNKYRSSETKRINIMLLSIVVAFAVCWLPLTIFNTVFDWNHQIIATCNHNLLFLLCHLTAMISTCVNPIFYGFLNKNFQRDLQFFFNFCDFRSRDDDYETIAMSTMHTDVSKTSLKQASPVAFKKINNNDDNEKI
Protocol: (§5) Competition binding experiments were performed according to [45]. […] Binding experiments using U2OS cells were optimized and performed in assay buffer (50 mM Tris-Cl pH 7.4, 118 mM NaCl, 5 mM MgCl2, 4.7 mM KCl, 0.1% BSA) for cells stably expressing GHSR and (25 mM HEPES, 120 mM NaCl, 5 mM MgCl2, 4.7 mM KCl, 1 mM CaCl2, 0.5% BSA, 2 g/L glucose) for cells containing receptors Y1, Y2 and Y5. […] Cells were incubated for 60 min at room temperature (RT).
as §2, §4

Y5 [1] = biological target: T5, Y5 (Homo sapiens, UniProt Q15761); assay: Competitive and saturation binding, [^125I]-PYY, U2OS cells with Y5
T5 construct: host or cells: U2OS
T5 sequence (Q15761 1-445): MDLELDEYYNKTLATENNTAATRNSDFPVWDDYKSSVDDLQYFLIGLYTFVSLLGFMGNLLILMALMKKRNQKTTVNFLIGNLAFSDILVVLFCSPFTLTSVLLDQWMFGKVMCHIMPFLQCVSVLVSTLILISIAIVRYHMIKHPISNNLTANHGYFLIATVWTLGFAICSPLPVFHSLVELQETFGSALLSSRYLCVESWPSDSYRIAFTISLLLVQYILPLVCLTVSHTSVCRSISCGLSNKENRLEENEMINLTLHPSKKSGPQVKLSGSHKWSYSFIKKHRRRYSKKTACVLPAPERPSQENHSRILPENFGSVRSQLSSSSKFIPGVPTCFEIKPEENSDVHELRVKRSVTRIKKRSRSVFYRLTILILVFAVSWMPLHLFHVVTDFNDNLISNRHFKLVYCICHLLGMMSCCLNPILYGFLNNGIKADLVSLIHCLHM
Protocol: as §5, §2, §4

Y5 [2] = biological target: T5, Y5; assay: Beta-lactamase reporter gene assay (FRET), Y5; assay type: cell-based
DOR = biological target: T6, DOR (Homo sapiens, UniProt P41143); assay: Beta-lactamase reporter gene assay (FRET), DOR; assay type: cell-based; conditions: β-lactamase assay, agonist mode, U2OS cells; mean ± SEM, 2–3 independent experiments in duplicates
T6 construct: host or cells: U2OS

MOR = biological target: T7, MOR (Homo sapiens, UniProt P35372); assay: Beta-lactamase reporter gene assay (FRET), MOR; assay type: cell-based
T7 construct: host or cells: U2OS

ORL-1 = biological target: T8, ORL-1 (Homo sapiens, UniProt P41146); assay: Beta-lactamase reporter gene assay (FRET), ORL-1; assay type: cell-based; conditions: β-lactamase assay, agonist mode, U2OS cells; mean ± SEM, 2–3 independent experiments in duplicates
T8 construct: host or cells: U2OS

Compound	Ki (NPFF-R2) [nM]	Ki (NPFF-R1) [nM]	Ki (KOR) [nM]	Ki (Y1) [nM]	Ki (Y5 [1]) [nM]	EC50 (Y5 [2]) [nM]	EC50 (DOR) [nM]	EC50 (MOR) [nM]	EC50 (ORL-1) [nM]
CCCCCCCCCCCCCCCC(=O)N[C@@H](CO)C(=O)N[C@@H](CCCNC(=N)N)C(=O)N[C@H](C(=O)N[C@@H](Cc1c[nH]cn1)C(=O)N[C@@H](CCCNC(=N)N)C(=O)N[C@@H](Cc1c[nH]cn1)C(=O)N[C@@H](CO)C(=O)N[C@@H](CCSC)C(=O)N[C@@H](CCC(=O)O)C(=O)N[C@H](C(=O)N[C@@H](CCCNC(=N)N)C(=O)N[C@H](C(=O)N1CCC[C@H]1C(=O)N[C@@H](CC(=O)O)C(=O)N[C@H](C(=O)N[C@@H](CC(N)=O)C(=O)N1CCC[C@H]1C(=O)N[C@@H](C)C(=O)N[C@@H](Cc1c[nH]c2ccccc12)C(=O)N[C@@H](Cc1ccc(O)cc1)C(=O)N[C@@H](C)C(=O)N[C@@H](CO)C(=O)N[C@@H](CCCNC(=N)N)C(=O)NCC(=O)N[C@H](C(=O)N[C@@H](CCCNC(=N)N)C(=O)N1CCC[C@H]1C(=O)N[C@H](C(=O)NCC(=O)N[C@@H](CCCNC(=N)N)C(=O)N[C@@H](Cc1ccccc1)C(N)=O)C(C)C)[C@@H](C)CC)[C@@H](C)CC)[C@@H](C)O)[C@@H](C)CC)[C@@H](C)O [Palm-PrRP31]	0.77 ± 0.19	0.78 ± 0.11	106 ± 15	3147 ± 31	32.6 ± 6.16	56.5 ± 18.4	> 10000	> 10000	> 10000
SRAHQHSMETRTPDINPAWYTGRGIRPVGRF-NH2 [PrRP31, prolactin-releasing peptide 31, reference compound]	26.7 ± 9.01	40.4 ± 4.2	> 10000	> 10000	2860 ± 43	> 10000	> 10000	> 10000	> 10000
